Measurements as given in ChEMBL document CHEMBL4308851, “Alkyl-guanidine Compounds as Potent Broad-Spectrum Antibacterial Agents: Chemical Library Extension and Biological Characterization” (J Med Chem, 2018).
Values after ≈ are worked out from the molar mass of the structure shown. Active and inactive are the calls of the source. No cut-off for these calls is given here.

Tests used:
Enterococcus faecalis = assay: Antibacterial activity against Enterococcus faecalis ATCC 19433 after 18 hrs by microdilution broth method; type: functional; conditions: ATCC 19433, 18 h
Bacillus spizizenii = assay: Antibacterial activity against Bacillus subtilis ATCC 6633 after 18 hrs by microdilution broth method; type: functional; conditions: ATCC 6633, 18 h
Escherichia coli [1] = assay: Disruption of Escherichia coli MG1655 ATCC 47076 outer membrane integrity assessed as induction of NPN uptake after 30 mins by NPN fluorescence-based assay; type: functional, organism-based; conditions: K-12 substr. MG1655 ATCC 47076
Pseudomonas aeruginosa [2] = assay: Antibiofilm activity against Pseudomonas aeruginosa PAO1 ATCC 15692 assessed as effect on biofilm 3D structures at half MIC concentration after 24 hrs by AO-staining based confocal microscopy; type: functional, organism-based
Streptococcus pyogenes = assay: Antibacterial activity against Streptococcus pyogenes ATCC 12344 after 18 hrs by microdilution broth method; type: functional; conditions: ATCC 12344, 18 h
Acinetobacter baumannii [3] = assay: Antibiofilm activity against Acinetobacter baumannii ATCC 19606 at half MIC concentration after 24 hrs by crystal violet-based assay; type: functional, organism-based; conditions: ATCC 19606 = CIP 70.34 = JCM 6841
Pseudomonas aeruginosa [4] = assay: Disruption of Pseudomonas aeruginosa PAO1 ATCC 15692 outer membrane integrity assessed as induction of NPN uptake after 30 mins by NPN fluorescence-based assay; type: functional, organism-based
Pseudomonas aeruginosa [5] = assay: Antibacterial activity against Pseudomonas aeruginosa ATCC 27853 after 18 hrs by microdilution broth method; type: functional; conditions: ATCC 27853, 18 h
Acinetobacter baumannii [6] = assay: Disruption of inner membrane integrity in Acinetobacter baumannii ATCC 19606 co-expressing pMP2200::PrrnB plasmid assessed as induction of […] conversion at 256 ug/ml measured at 10 mins intervals for 1 hr; type: functional, organism-based; conditions: ATCC 19606 = CIP 70.34 = JCM 6841
Escherichia coli [7] = assay: Antibacterial activity against Escherichia coli CCUG after 18 hrs by microdilution broth method
Escherichia coli [8] = assay: Antibiofilm activity against Escherichia coli MG1655 ATCC 47076 at half MIC concentration after 24 hrs by crystal violet-based assay; type: functional, organism-based; conditions: K-12 substr. MG1655 ATCC 47076
Acinetobacter baumannii [9] = assay: Antibacterial activity against Acinetobacter baumannii ATCC 17978 after 18 hrs by microdilution broth method; type: functional; conditions: ATCC 17978, 18 h
Pseudomonas aeruginosa [10] = assay: Antibiofilm activity against Pseudomonas aeruginosa PAO1 ATCC 15692 at half MIC concentration after 24 hrs by crystal violet-based assay; type: functional, organism-based
Acinetobacter baumannii [11] = assay: Antibiofilm activity against Acinetobacter baumannii ATCC 19606 assessed as effect on biofilm 3D structures at half MIC concentration after 24 hrs by AO-staining based confocal microscopy; type: functional, organism-based; conditions: ATCC 19606 = CIP 70.34 = JCM 6841
Klebsiella pneumoniae [12] = assay: Antibacterial activity against Klebsiella pneumoniae ATCC […] after 18 hrs by microdilution broth method; type: functional
Escherichia coli [13] = assay: Disruption of inner membrane integrity in Escherichia coli MG1655 assessed as induction of […] conversion at 256 ug/ml measured at 10 mins intervals for 1 hr; type: functional, organism-based; conditions: K-12 substr. MG1655
Escherichia coli [14] = assay: Antibiofilm activity against Escherichia coli MG1655 ATCC 47076 assessed as effect on biofilm 3D structures at half MIC concentration after 24 hrs by AO-staining based confocal microscopy; type: functional, organism-based; conditions: K-12 substr. MG1655 ATCC 47076
Staphylococcus aureus = assay: Antibacterial activity against Staphylococcus aureus ATCC 25923 after 18 hrs by microdilution broth method; type: functional; conditions: ATCC 25923, 18 h
Acinetobacter baumannii [15] = assay: Disruption of Acinetobacter baumannii ATCC 19606 outer membrane integrity assessed as induction of NPN uptake after 30 mins by NPN fluorescence-based assay; type: functional, organism-based; conditions: ATCC 19606 = CIP 70.34 = JCM 6841
[16] = Hemolytic activity against human erythrocytes assessed as induction of hemolysis at 64 ug/ml after 30 mins; type: cell-based, Erythrocyte; conditions: read-out: Activity
Pseudomonas aeruginosa [17] = assay: Disruption of inner membrane integrity in Pseudomonas aeruginosa PAO1 ATCC 15692 co-expressing pMP2200::PrrnB plasmid assessed as induction of OPNG conversion at 256 ug/ml measured at 10 mins intervals for 1 hr; type: functional, organism-based
[18] = system: Stenotrophomonas maltophilia; assay: Antibacterial activity against Stenotrophomonas maltophilia isolate 634/08 after 18 hrs by microdilution broth method; type: functional; conditions: isolate 634/08, 18 h
Burkholderia cepacia = assay: Antibacterial activity against Burkholderia cepacia isolate SI-R2 after 18 hrs by microdilution broth method; type: functional; conditions: isolate SI-R2, 18 h
Klebsiella pneumoniae [19] = assay: Antibacterial activity against Klebsiella pneumoniae isolate SI-081 after 18 hrs by microdilution broth method; type: functional; conditions: isolate SI-081, 18 h
Enterobacter cloacae = assay: Antibacterial activity against Enterobacter cloacae isolate VA-417/02 after 18 hrs by microdilution broth method; type: functional; conditions: isolate VA-417/02, 18 h
Acinetobacter baumannii [20] = assay: Antibacterial activity against Acinetobacter baumannii isolate AC-54/97 after 18 hrs by microdilution broth method; type: functional; conditions: isolate AC-54/97, 18 h

Row | SMILES | MIC (Enterococcus faecalis) | MIC (Bacillus spizizenii) | MIC (Streptococcus pyogenes) | MIC (Pseudomonas aeruginosa [5]) | MIC (Escherichia coli [7]) | MIC (Acinetobacter baumannii [9]) | MIC (Klebsiella pneumoniae [12]) | MIC (Staphylococcus aureus) | MIC [18] | MIC (Burkholderia cepacia) | MIC (Klebsiella pneumoniae [19]) | MIC (Enterobacter cloacae) | also measured
1 | CN[C@H](CC(C)C)C(=O)N[C@H]1C(=O)N[C@@H](CC(N)=O)C(=O)N[C@H]2C(=O)N[C@H]3C(=O)N[C@H](C(=O)N[C@H](C(=O)O)c4cc(O)cc(O)c4-c4cc3ccc4O)[C@H](O)c3ccc(c(Cl)c3)Oc3cc2cc(c3O[C@@H]2O[C@H](CO)[C@@H](O)[C@H](O)[C@H]2O[C@H]2C[C@](C)(N)[C@H](O)[C@H](C)O2)Oc2ccc(cc2Cl)[C@H]1O [VANCOMYCIN] | 1 µg/mL (≈ 0.69 µM) | 0.5 µg/mL (≈ 0.345 µM) | – | – | – | – | – | – | – | – | – | – | –
2 | N=C(N)NCCCCCCCCNCCCCCCCCNC(=N)NCC1CC1 | > 64 µg/mL | 64 µg/mL (≈ 156 µM) | > 64 µg/mL | > 64 µg/mL | 64 µg/mL (≈ 156 µM) | > 64 µg/mL | > 64 µg/mL | > 64 µg/mL | – | – | – | – | Activity (Escherichia coli [1]): Dose-dependent effect; Activity (Pseudomonas aeruginosa [2]): inactive; Activity (Acinetobacter baumannii [3]): inactive; Activity (Pseudomonas aeruginosa [4]): Dose-dependent effect; Activity (Acinetobacter baumannii [6]): inactive; Activity (Escherichia coli [8]): inactive; Activity (Pseudomonas aeruginosa [10]): inactive; Activity (Acinetobacter baumannii [11]): inactive; Activity (Escherichia coli [13]): inactive; Activity (Escherichia coli [14]): inactive; Activity (Acinetobacter baumannii [15]): Dose-dependent effect; hemolysis at 0.5 h, 64 ug/ml [16]: 0 to 7%; Activity (Pseudomonas aeruginosa [17]): inactive
3 | N=C(N)NCCCCCCN(CCCCCCNC(=N)NCC1CC1)C(=O)N(CCCCCCNC(=N)N)CCCCCCNC(=N)NCC1CC1 | 32 µg/mL (≈ 43.6 µM) | 4 µg/mL (≈ 5.46 µM) | 2 µg/mL (≈ 2.73 µM) | 256 µg/mL (≈ 349 µM) | 16 µg/mL (≈ 21.8 µM) | 128 µg/mL (≈ 175 µM) | 32 µg/mL (≈ 43.6 µM) | 4 µg/mL (≈ 5.46 µM) | – | – | – | – | –
4 | CCCCCCCCCC(=O)N[C@@H](Cc1c[nH]c2ccccc12)C(=O)N[C@H](CC(N)=O)C(=O)N[C@@H](CC(=O)O)C(=O)N[C@@H]1C(=O)NCC(=O)N[C@@H](CCCN)C(=O)N[C@@H](CC(=O)O)C(=O)N[C@H](C)C(=O)N[C@@H](CC(=O)O)C(=O)NCC(=O)N[C@H](CO)C(=O)N[C@@H]([C@H](C)CC(=O)O)C(=O)N[C@@H](CC(=O)c2ccccc2N)C(=O)O[C@@H]1C | 1 µg/mL (≈ 0.617 µM) | 1 µg/mL (≈ 0.617 µM) | 0.12 µg/mL (≈ 0.074 µM) | – | – | – | – | 0.5 µg/mL (≈ 0.309 µM) | – | – | – | – | –
5 | CC(C)(C)OC(=O)/N=C(/NCCCCCCCCN(CCCCCCCCN/C(=N/C(=O)OC(C)(C)C)NC(=O)OC(C)(C)C)C(=O)N(CCCCCCCCN/C(=N/C(=O)OC(C)(C)C)N(CC1CC1)C(=O)OC(C)(C)C)CCCCCCCCN/C(=N/C(=O)OC(C)(C)C)N(CC1CC1)C(=O)OC(C)(C)C)NC(=O)OC(C)(C)C | ≥ 256 µg/mL | ≥ 256 µg/mL | ≥ 256 µg/mL | ≥ 256 µg/mL | ≥ 256 µg/mL | ≥ 256 µg/mL | ≥ 256 µg/mL | ≥ 256 µg/mL | ≥ 256 µg/mL | ≥ 256 µg/mL | ≥ 256 µg/mL | ≥ 256 µg/mL | MIC (Acinetobacter baumannii [20]): ≥ 256 µg/mL

Further compounds by falling MIC (Enterococcus faecalis), results first:

Row | MIC (Enterococcus faecalis) | MIC (Bacillus spizizenii) | MIC (Streptococcus pyogenes) | MIC (Pseudomonas aeruginosa [5]) | MIC (Escherichia coli [7]) | MIC (Acinetobacter baumannii [9]) | MIC (Klebsiella pneumoniae [12]) | MIC (Staphylococcus aureus) | MIC [18] | MIC (Burkholderia cepacia) | MIC (Klebsiella pneumoniae [19]) | MIC (Enterobacter cloacae) | SMILES | also measured
6 | 64 µg/mL (≈ 90.3 µM) | 16 µg/mL (≈ 22.6 µM) | 4 µg/mL (≈ 5.64 µM) | > 256 µg/mL | 64 µg/mL (≈ 90.3 µM) | 256 µg/mL (≈ 361 µM) | 128 µg/mL (≈ 181 µM) | 32 µg/mL (≈ 45.1 µM) | – | – | – | – | CCNC(=N)NCCCCCCN(CCCCCCNC(=N)N)C(=O)N(CCCCCCNC(=N)NCC)CCCCCCNC(=N)NCC | –
7 | 4 µg/mL (≈ 4.18 µM) | 2 µg/mL (≈ 2.09 µM) | 4 µg/mL (≈ 4.18 µM) | 64 µg/mL (≈ 66.8 µM) | 16 µg/mL (≈ 16.7 µM) | 64 µg/mL (≈ 66.8 µM) | 8 µg/mL (≈ 8.35 µM) | 8 µg/mL (≈ 8.35 µM) | – | – | – | – | N=C(N)NCCCCCCCCCCN(CCCCCCCCCCNC(=N)NCC1CC1)C(=O)N(CCCCCCCCCCNC(=N)N)CCCCCCCCCCNC(=N)NCC1CC1 | Activity (Escherichia coli [1]): Dose-dependent effect; Activity (Pseudomonas aeruginosa [2]): inactive; Activity (Acinetobacter baumannii [3]): inactive; Activity (Pseudomonas aeruginosa [4]): Dose-dependent effect; Activity (Acinetobacter baumannii [6]): inactive; Activity (Escherichia coli [8]): inactive; Activity (Pseudomonas aeruginosa [10]): inactive; Activity (Acinetobacter baumannii [11]): inactive; Activity (Escherichia coli [13]): inactive; Activity (Escherichia coli [14]): inactive; Activity (Acinetobacter baumannii [15]): Dose-dependent effect; hemolysis at 0.5 h, 64 ug/ml [16]: 41 to 54%; Activity (Pseudomonas aeruginosa [17]): inactive
8 | 2 µg/mL (≈ 2.18 µM) | 2 µg/mL (≈ 2.18 µM) | 2 µg/mL (≈ 2.18 µM) | 16 µg/mL (≈ 17.4 µM) | 4 µg/mL (≈ 4.36 µM) | 8 µg/mL (≈ 8.72 µM) | 2 µg/mL (≈ 2.18 µM) | 2 µg/mL (≈ 2.18 µM) | 8 µg/mL (≈ 8.72 µM) | 16 µg/mL (≈ 17.4 µM) | 8 µg/mL (≈ 8.72 µM) | 4 µg/mL (≈ 4.36 µM) | N=C(N)NCCCCCCCCN(CCCCCCCCNC(=N)NCc1ccccc1)C(=O)N(CCCCCCCCNC(=N)N)CCCCCCCCNC(=N)NCc1ccccc1 | –
9 | 1 µg/mL (≈ 1.26 µM) | 1 µg/mL (≈ 1.26 µM) | 0.5 µg/mL (≈ 0.63 µM) | 16 µg/mL (≈ 20.2 µM) | 2 µg/mL (≈ 2.52 µM) | 16 µg/mL (≈ 20.2 µM) | 2 µg/mL (≈ 2.52 µM) | 1 µg/mL (≈ 1.26 µM) | 16 µg/mL (≈ 20.2 µM) | 32 µg/mL (≈ 40.3 µM) | 4 µg/mL (≈ 5.04 µM) | 4 µg/mL (≈ 5.04 µM) | CCNC(=N)NCCCCCCCCN(CCCCCCCCNC(=N)N)C(=O)N(CCCCCCCCNC(=N)N)CCCCCCCCNC(=N)NCC | –
